Experimental data taken from the supplement of paper PMC8253809.

Columns and labels:
DIPGX29 [1] = H3.3 K27M diffuse intrinsic pontine glioma line; experiment: maximal growth inhibition (yFin) relative to DMSO / staurosporine; higher = more efficacious
Procedure, shortened: (§1)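 Treatment used a pin tool and a 10-point threefold dilution series, mean top concentration 35 μM, run in triplicate on patient-derived pHGG/DIPG cell lines and astrocyte controls in 1% Geltrex-coated 384-well plates. Plates were kept at 37 °C, 5% CO2 for 7 days (iAstro: 3 days). Log2-transformed CellTiter-Glo luminescence was scaled per plate to % activity between negative (solvent) and positive control wells and pooled before fitting. EC50 and maximal response (yFin) came from the three- or four-parameter log-logistic fit chosen by lowest AICc.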

HGGX2 [2] = paediatric high-grade glioma line; experiment: as above
Procedure, shortened: as §1

SUDIPGVI [3] = diffuse intrinsic pontine glioma line; experiment: as above
Procedure, shortened: as §1

HABS [4] = astrocyte control; experiment: as above
Procedure, shortened: as §1

SUDIPGIV [5] = diffuse intrinsic pontine glioma line; experiment: as above
Procedure, shortened: as §1

DIPGX37 [6] = H3.3 K27M diffuse intrinsic pontine glioma line; experiment: as above
Procedure, shortened: as §1

iAstro [7] = astrocyte control; experiment: as above
Procedure, shortened: as §1

SUDIPGXXI [8] = diffuse intrinsic pontine glioma line; experiment: as above
Procedure, shortened: as §1

SUDIPGXIX [9] = diffuse intrinsic pontine glioma line; experiment: as above
Procedure, shortened: as §1

HGGX39 [10] = paediatric high-grade glioma line; experiment: as above
Procedure, shortened: as §1

DIPGX9 [11] = diffuse intrinsic pontine glioma line; experiment: as above
Procedure, shortened: as §1

DIPGX29 [12] = experiment: EC50 (inflection of fitted growth-inhibition curve) (log10 M)
Procedure, shortened: as §1

HGGX2 [13] = experiment: as above
Procedure, shortened: as §1

SUDIPGVI [14] = experiment: as above
Procedure, shortened: as §1

HABS [15] = experiment: as above
Procedure, shortened: as §1

SUDIPGIV [16] = experiment: as above
Procedure, shortened: as §1

DIPGX37 [17] = experiment: as above
Procedure, shortened: as §1

iAstro [18] = experiment: as above
Procedure, shortened: as §1

SUDIPGXXI [19] = experiment: as above
Procedure, shortened: as §1

SUDIPGXIX [20] = experiment: as above
Procedure, shortened: as §1

HGGX39 [21] = experiment: as above
Procedure, shortened: as §1

DIPGX9 [22] = experiment: as above
Procedure, shortened: as §1

DIPGX29 [23] = experiment: area under dose-response curve of % growth inhibition (log2 RLU vs DMSO / staurosporine), 1e-11 to 1e-4 M (% x log10 M); higher = more growth inhibition
Procedure, shortened: (§2)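 Patient-derived pHGG/DIPG cell lines and astrocytes were plated in 384-well plates coated with 1% Geltrex and treated in triplicate with a 10-point threefold dilution series whose mean top concentration was 35 μM, for 7 days (3 days for iAstro) at 37 °C and 5% CO2. CellTiter-Glo luminescence was log2-transformed and scaled on each plate to % activity between solvent and positive controls. Area under the curve came from the trapezoid rule applied to a fitted log-logistic curve, or to a smoothing spline where the sigmoid fit failed.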

HGGX2 [24] = experiment: as above
Procedure, shortened: as §2

SUDIPGVI [25] = experiment: as above
Procedure, shortened: as §2

DIPGX7 = H3.3 K27M diffuse intrinsic pontine glioma line; experiment: as above
Procedure, shortened: as §2

HABS [26] = experiment: as above
Procedure, shortened: as §2

SUDIPGIV [27] = experiment: as above
Procedure, shortened: as §2

DIPGX37 [28] = experiment: as above
Procedure, shortened: as §2

SUDIPGXVII [29] = diffuse intrinsic pontine glioma line; experiment: as above
Procedure, shortened: as §2

HGGX6 = H3.3 G34R paediatric high-grade glioma line; experiment: as above
Procedure, shortened: as §2

iAstro [30] = experiment: as above
Procedure, shortened: as §2

SUDIPGXXI [31] = experiment: as above
Procedure, shortened: as §2

SUDIPGXIII [32] = diffuse intrinsic pontine glioma line; experiment: as above
Procedure, shortened: as §2

HGGX42 [33] = H3.3 G34R paediatric high-grade glioma line; experiment: as above
Procedure, shortened: as §2

SUDIPGXIX [34] = experiment: as above
Procedure, shortened: as §2

HGGX39 [35] = experiment: as above
Procedure, shortened: as §2

DIPGX9 [36] = experiment: as above
Procedure, shortened: as §2

SUDIPGXVII [37] = experiment: maximal growth inhibition (yFin) relative to DMSO / staurosporine; higher = more efficacious
Procedure, shortened: as §1

SUDIPGXIII [38] = experiment: as above
Procedure, shortened: as §1

HGGX42 [39] = experiment: as above
Procedure, shortened: as §1

SUDIPGXVII [40] = experiment: EC50 (inflection of fitted growth-inhibition curve) (log10 M)
Procedure, shortened: as §1

SUDIPGXIII [41] = experiment: as above
Procedure, shortened: as §1

HGGX42 [42] = experiment: as above
Procedure, shortened: as §1

In the case of COC(=O)Nc1nc2cc(C(=O)c3ccccc3)ccc2[nH]1 [MEBENDAZOLE], the maximal growth inhibition (DIPGX29 [1]) is reported as 25.1%, the maximal growth inhibition (HGGX2 [2]) is reported as 47.6% and the maximal growth inhibition (SUDIPGVI [3]) is reported as 22.1%. The maximal growth inhibition (HABS [4]) was 32.9%, the maximal growth inhibition (SUDIPGIV [5]) was 63.1% and the maximal growth inhibition (DIPGX37 [6]) was 36.4%. The maximal growth inhibition (iAstro [7]) was 28.1%, the maximal growth inhibition (SUDIPGXXI [8]) was 98.3% and the maximal growth inhibition (SUDIPGXIX [9]) was 31.4%. For the same compound, the maximal growth inhibition (HGGX39 [10]) was 28.5%, the maximal growth inhibition (DIPGX9 [11]) was 36.9% and the “EC50 (log10 M)” value (DIPGX29 [12]) was -6.23. For the same compound, the “EC50 (log10 M)” value (HGGX2 [13]) was -5.91, the “EC50 (log10 M)” value (SUDIPGVI [14]) was -5.51 and the “EC50 (log10 M)” value (HABS [15]) was -6.45. The “EC50 (log10 M)” value (SUDIPGIV [16]) was -5.58, the “EC50 (log10 M)” value (DIPGX37 [17]) was -6.7 and the “EC50 (log10 M)” value (iAstro [18]) was -5.94. The “EC50 (log10 M)” value (SUDIPGXXI [19]) was -6.53, the “EC50 (log10 M)” value (SUDIPGXIX [20]) was -6.45 and the “EC50 (log10 M)” value (HGGX39 [21]) was -6.61. The “EC50 (log10 M)” value (DIPGX9 [22]) was -6.44, the “area under dose-response curve” value (DIPGX29 [23]) was 53.6 and the “area under dose-response curve” value (HGGX2 [24]) was 93.5. The “area under dose-response curve” value (SUDIPGVI [25]) was 30.4, the “area under dose-response curve” value (DIPGX7) was 20.7 and the “area under dose-response curve” value (HABS [26]) was 80.6. The “area under dose-response curve” value (SUDIPGIV [27]) was 93.5, the “area under dose-response curve” value (DIPGX37 [28]) was 94.4 and the “area under dose-response curve” value (SUDIPGXVII [29]) was 40.1. For the same compound, the “area under dose-response curve” value (HGGX6) was 27.4, the “area under dose-response curve” value (iAstro [30]) was 47.3 and the “area under dose-response curve” value (SUDIPGXXI [31]) was 246. The “area under dose-response curve” value (SUDIPGXIII [32]) was 17.5, the “area under dose-response curve” value (HGGX42 [33]) was 38.7 and the “area under dose-response curve” value (SUDIPGXIX [34]) was 71. The “area under dose-response curve” value (HGGX39 [35]) was 73.2 and the “area under dose-response curve” value (DIPGX9 [36]) was 90.

CC[C@@]1(O)C(=O)OCc2c1cc1n(c2=O)Cc2cc3c(CN(C)C)c(O)ccc3nc2-1 [TOPOTECAN] gave a maximal growth inhibition (HABS [4]) of 64.3%, a maximal growth inhibition (SUDIPGIV [5]) of 87.4% and a maximal growth inhibition (DIPGX37 [6]) of 103%. For the same compound, the maximal growth inhibition (SUDIPGXVII [37]) was 39%, the maximal growth inhibition (iAstro [7]) was 34.6% and the maximal growth inhibition (SUDIPGXXI [8]) was 79%. The maximal growth inhibition (SUDIPGXIII [38]) was 26%, the maximal growth inhibition (HGGX42 [39]) was 37.5% and the maximal growth inhibition (SUDIPGXIX [9]) was 98.6%. The maximal growth inhibition (HGGX39 [10]) was 85.3%, the maximal growth inhibition (DIPGX9 [11]) was 96.3% and the “EC50 (log10 M)” value (HABS [15]) was -6.83. The “EC50 (log10 M)” value (SUDIPGIV [16]) was -7.62, the “EC50 (log10 M)” value (DIPGX37 [17]) was -4.78 and the “EC50 (log10 M)” value (SUDIPGXVII [40]) was -6.09. The “EC50 (log10 M)” value (iAstro [18]) was -7.87, the “EC50 (log10 M)” value (SUDIPGXXI [19]) was -8.44 and the “EC50 (log10 M)” value (SUDIPGXIII [41]) was -5.85. The “EC50 (log10 M)” value (HGGX42 [42]) was -7.08, the “EC50 (log10 M)” value (SUDIPGXIX [20]) was -5.74 and the “EC50 (log10 M)” value (HGGX39 [21]) was -5.44. For the same compound, the “EC50 (log10 M)” value (DIPGX9 [22]) was -6.06, the “area under dose-response curve” value (DIPGX29 [23]) was 71 and the “area under dose-response curve” value (HGGX2 [24]) was 121. The “area under dose-response curve” value (SUDIPGVI [25]) was 71.8, the “area under dose-response curve” value (DIPGX7) was 118 and the “area under dose-response curve” value (HABS [26]) was 204. The “area under dose-response curve” value (SUDIPGIV [27]) was 317, the “area under dose-response curve” value (DIPGX37 [28]) was 150 and the “area under dose-response curve” value (SUDIPGXVII [29]) was 84.5. The “area under dose-response curve” value (HGGX6) was 75.7, the “area under dose-response curve” value (iAstro [30]) was 134 and the “area under dose-response curve” value (SUDIPGXXI [31]) was 351. The “area under dose-response curve” value (SUDIPGXIII [32]) was 60, the “area under dose-response curve” value (HGGX42 [33]) was 119 and the “area under dose-response curve” value (SUDIPGXIX [34]) was 267. For the same compound, the “area under dose-response curve” value (HGGX39 [35]) was 138 and the “area under dose-response curve” value (DIPGX9 [36]) was 287.

CC(=O)Nc1cccc(-n2c(=O)n(C3CC3)c(=O)c3c(Nc4ccc(I)cc4F)n(C)c(=O)c(C)c32)c1 [TRAMETINIB] was tested, and the maximal growth inhibition (DIPGX29 [1]) was 54.2%, the maximal growth inhibition (HABS [4]) was 78.3% and the maximal growth inhibition (SUDIPGIV [5]) was 26.3%. The maximal growth inhibition (DIPGX37 [6]) was 88.3%, the maximal growth inhibition (SUDIPGXVII [37]) was 47.3% and the maximal growth inhibition (iAstro [7]) was 32.2%. For the same compound, the maximal growth inhibition (SUDIPGXXI [8]) was 91.1%, the maximal growth inhibition (SUDIPGXIII [38]) was 42.5% and the maximal growth inhibition (HGGX42 [39]) was 46.1%. The maximal growth inhibition (SUDIPGXIX [9]) was 106%, the maximal growth inhibition (HGGX39 [10]) was 53.5% and the maximal growth inhibition (DIPGX9 [11]) was 99.2%. For the same compound, the “EC50 (log10 M)” value (DIPGX29 [12]) was -7.25, the “EC50 (log10 M)” value (HABS [15]) was -6.03 and the “EC50 (log10 M)” value (SUDIPGIV [16]) was -6.66. The “EC50 (log10 M)” value (DIPGX37 [17]) was -7.38, the “EC50 (log10 M)” value (SUDIPGXVII [40]) was -6.86 and the “EC50 (log10 M)” value (iAstro [18]) was -4.63. For the same compound, the “EC50 (log10 M)” value (SUDIPGXXI [19]) was -7.93, the “EC50 (log10 M)” value (SUDIPGXIII [41]) was -7.34 and the “EC50 (log10 M)” value (HGGX42 [42]) was -4.9. For the same compound, the “EC50 (log10 M)” value (SUDIPGXIX [20]) was -7.25, the “EC50 (log10 M)” value (HGGX39 [21]) was -5.15 and the “EC50 (log10 M)” value (DIPGX9 [22]) was -7.37. The “area under dose-response curve” value (DIPGX29 [23]) was 176, the “area under dose-response curve” value (HGGX2 [24]) was 96.1 and the “area under dose-response curve” value (SUDIPGVI [25]) was 62.1. For the same compound, the “area under dose-response curve” value (DIPGX7) was 29.4, the “area under dose-response curve” value (HABS [26]) was 162 and the “area under dose-response curve” value (SUDIPGIV [27]) was 66.9. The “area under dose-response curve” value (DIPGX37 [28]) was 299, the “area under dose-response curve” value (SUDIPGXVII [29]) was 135 and the “area under dose-response curve” value (HGGX6) was 47.4. The “area under dose-response curve” value (iAstro [30]) was 19, the “area under dose-response curve” value (SUDIPGXXI [31]) was 358 and the “area under dose-response curve” value (SUDIPGXIII [32]) was 173. For the same compound, the “area under dose-response curve” value (HGGX42 [33]) was 51.4, the “area under dose-response curve” value (SUDIPGXIX [34]) was 345 and the “area under dose-response curve” value (HGGX39 [35]) was 74.7. The “area under dose-response curve” value (DIPGX9 [36]) was 334.
